Among the test systems are 786-0; A549; ACHN; CCRF-CEM; HOP-62; HT-29; MOLT-4; Malme-3M; NCI-H23; OVCAR-4; OVCAR-8; RPMI-8226; SK-MEL-28; SK-MEL-2; SNB-75; SNB-78; U-251; UO-31; MDA-MB-231; MDA-N.
Holding throughout (test): NCI anticancer screen, dose series, 48 h

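How tested: cells in 96-well plates exposed to compound for 48 hours at five concentrations. The concentration for 50% growth inhibition is given as GI50.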 The source made the active and inactive calls. Rule as the data show it: active = GI50 up to about 1.1 µM and inactive = higher.

Regarding `COc1ccc(S(=O)(=O)N[C@H](C(=O)O)c2ccccc2)cc1`, the GI50 in the test with 786-0, with A549, in the test on ACHN, in the test with CCRF-CEM, in the test on HOP-62 and in the test on HT-29 was > 100 µM (inactive) throughout. Moreover, the GI50 with MOLT-4, in the test with Malme-3M, with NCI-H23, with OVCAR-4, with OVCAR-8 and in the test with RPMI-8226 was > 100 µM (inactive) in each case. The GI50 in the test with SK-MEL-28, with SK-MEL-2, with SNB-75, with SNB-78, in the test with U-251 and in the test on UO-31 was > 100 µM (inactive) throughout.
On to `CCN(CC)CC(O)CNc1ccc(NCC(O)CCl)c2c1C(=O)c1ccccc1C2=O` (stereo not drawn), for which the GI50 with 786-0 was 2.98 µM (inactive); in the test on A549 it was 9.27 µM (inactive); in the test on ACHN, 2.97 µM (inactive); in the test on CCRF-CEM, 1.06 µM (active); in the test on HOP-62, 10.9 µM (inactive); with HT-29 it was 3.31 µM (inactive). The GI50 in the test on MDA-MB-231 is 11.1 µM (inactive); with MDA-N, 5.19 µM (inactive); with MOLT-4, 0.484 µM (active); in the test on Malme-3M it was 13.4 µM (inactive); with NCI-H23, 6.67 µM (inactive); in the test with OVCAR-4, 6.52 µM (inactive). Also, the GI50 with OVCAR-8 was 3.85 µM (inactive); in the test on RPMI-8226, 4.92 µM (inactive); in the test with SK-MEL-28 it was 11.5 µM (inactive); with SK-MEL-2, 12.2 µM (inactive); with SNB-75, 11 µM (inactive); in the test on SNB-78, 6.7 µM (inactive). In addition, the GI50 in the test with U-251 was 10.8 µM (inactive); with UO-31, 4.59 µM (inactive).
Consider `CCNCCCCNCCCCNCCCCNCCCCNCC`, for which the GI50 in the test with 786-0 was 34.8 µM (inactive); with A549 it was 20.7 µM (inactive); with ACHN it was > 89.9 µM (inactive); in the test on CCRF-CEM, 63.5 µM (inactive); in the test on HOP-62, 26.4 µM (inactive); in the test on HT-29, 18.6 µM (inactive). Moreover, the GI50 is > 100 µM (inactive) with MDA-MB-231; 12.3 µM (inactive) with MDA-N; > 79.6 µM (inactive) with MOLT-4; 6.49 µM (inactive) with Malme-3M; 9.08 µM (inactive) in the test on NCI-H23; > 22.2 µM (inactive) in the test on OVCAR-4. The GI50 in the test with OVCAR-8 is > 100 µM (inactive); with RPMI-8226 it was 53 µM (inactive); with SK-MEL-28 it was 9.14 µM (inactive); in the test with SK-MEL-2, 48.1 µM (inactive); with SNB-75, 16.7 µM (inactive); in the test with SNB-78 it was > 100 µM (inactive). In addition, the GI50 with U-251 was > 100 µM (inactive); in the test with UO-31, 53.6 µM (inactive).
As to `COC1(OC)C2(Cl)C(Cl)=C(Cl)C1(Cl)C1c3ccc(C(C)=O)c4cccc(c34)C12` (stereo not drawn), the GI50 was 45.7 µM (inactive) with 786-0; 23 µM (inactive) with A549; 19 µM (inactive) in the test with ACHN; 13.8 µM (inactive) in the test on CCRF-CEM; 63.4 µM (inactive) with HOP-62; 5.24 µM (inactive) in the test on HT-29. The GI50 in the test on MDA-MB-231 is 9.73 µM (inactive); in the test on MDA-N, 14.8 µM (inactive); in the test on MOLT-4, 5.47 µM (inactive); with Malme-3M, 12.3 µM (inactive); in the test with NCI-H23 it was 7.16 µM (inactive); in the test with OVCAR-4 it was 27.9 µM (inactive). For the same compound, the GI50 was 48.6 µM (inactive) in the test on OVCAR-8; 5.82 µM (inactive) in the test on RPMI-8226; 42.8 µM (inactive) in the test with SK-MEL-28; 17.3 µM (inactive) with SK-MEL-2; 25.9 µM (inactive) with SNB-75; 28.3 µM (inactive) in the test with SNB-78. Moreover, the GI50 was 30.3 µM (inactive) in the test on U-251 and 27.5 µM (inactive) with UO-31.
Consider `N#CCN1C(=O)c2cccc3cc([N+](=O)[O-])cc(c23)C1=O`, for which the GI50 is 60.3 µM (inactive) with 786-0; 40.1 µM (inactive) with A549; 42.5 µM (inactive) in the test with ACHN; 24.7 µM (inactive) in the test with CCRF-CEM; 41.1 µM (inactive) in the test with HOP-62; 41.8 µM (inactive) in the test with HT-29. Also, the GI50 is 26.4 µM (inactive) in the test with MOLT-4; 33.6 µM (inactive) in the test with Malme-3M; 29.5 µM (inactive) with NCI-H23; 45.4 µM (inactive) with OVCAR-4; 38.9 µM (inactive) in the test on OVCAR-8; 22.7 µM (inactive) in the test with RPMI-8226. The GI50 in the test with SK-MEL-28 was 35.2 µM (inactive); in the test on SK-MEL-2, 0.745 µM (active); in the test on SNB-75 it was 38 µM (inactive); with SNB-78, 71.6 µM (inactive); in the test on U-251 it was 38.7 µM (inactive); in the test with UO-31, 23.4 µM (inactive).
On to `COc1ccc(C23c4ccc(OC)cc4CC2(c2ccc([N+](=O)[O-])cc2)Cc2cc(OC)ccc23)cc1` (stereo not drawn), for which the GI50 in the test with 786-0 was > 100 µM (inactive); in the test on A549, > 21.2 µM (inactive); in the test on ACHN, > 39.4 µM (inactive); with CCRF-CEM it was > 40.9 µM (inactive); in the test with HOP-62, > 14.1 µM (inactive); in the test on HT-29, > 23.3 µM (inactive). In addition, the GI50 in the test on MOLT-4 was > 36.2 µM (inactive); with Malme-3M it was > 38.2 µM (inactive); with NCI-H23, > 26.4 µM (inactive); with OVCAR-4, > 25.1 µM (inactive); in the test on OVCAR-8, > 36.7 µM (inactive); with RPMI-8226, > 27.4 µM (inactive). In addition, the GI50 in the test on SK-MEL-28 was > 17.9 µM (inactive); with SK-MEL-2, > 74.1 µM (inactive); with SNB-75, > 83.6 µM (inactive); with SNB-78 it was > 100 µM (inactive); in the test on U-251 it was > 50.1 µM (inactive); in the test with UO-31, > 24.3 µM (inactive).
Turning to `S=c1[nH]nc(Cc2ccccc2)c(=S)[nH]1`, the GI50 in the test with 786-0 was > 100 µM (inactive); with A549, > 69.8 µM (inactive); with ACHN, 4.8 µM (inactive); with CCRF-CEM it was > 100 µM (inactive); in the test with HOP-62 it was > 75 µM (inactive); with HT-29 it was > 51.8 µM (inactive). Besides, the GI50 with MDA-MB-231 is 26.1 µM (inactive); in the test with MDA-N it was 98.6 µM (inactive); with MOLT-4, > 59.7 µM (inactive); with Malme-3M, > 55.6 µM (inactive); with NCI-H23, > 64.4 µM (inactive); in the test on OVCAR-4 it was > 60.7 µM (inactive). Besides, the GI50 was > 61.2 µM (inactive) with OVCAR-8; 50.8 µM (inactive) in the test on RPMI-8226; > 68.2 µM (inactive) in the test with SK-MEL-28; > 43.1 µM (inactive) in the test with SK-MEL-2; 23.1 µM (inactive) in the test with SNB-75; > 100 µM (inactive) with SNB-78. The GI50 was > 55.1 µM (inactive) in the test on U-251 and 46.5 µM (inactive) with UO-31.
For `COC(=O)C(CC1=C(O)Nc2ccccc2N1)/C(=N/NC(N)=O)C(=O)Nc1ccccc1C` (stereo not drawn), the GI50 in the test with 786-0 is > 100 µM (inactive); with A549, > 100 µM (inactive); with ACHN it was > 100 µM (inactive); with CCRF-CEM it was 21.7 µM (inactive); in the test with HOP-62, > 100 µM (inactive); in the test with HT-29 it was 66.5 µM (inactive). In addition, the GI50 in the test on MOLT-4 is > 100 µM (inactive); with Malme-3M, > 100 µM (inactive); in the test on NCI-H23 it was > 100 µM (inactive); with OVCAR-4 it was > 100 µM (inactive); in the test with OVCAR-8, > 100 µM (inactive); in the test with RPMI-8226 it was 21 µM (inactive). The GI50 with SK-MEL-28 is 34.7 µM (inactive); with SK-MEL-2, > 100 µM (inactive); in the test on SNB-75, > 100 µM (inactive); with SNB-78 it was > 100 µM (inactive); with U-251 it was > 100 µM (inactive); in the test with UO-31, > 100 µM (inactive).
Turning to `Cc1nc(N)c(-c2ccccc2)s1`, the GI50 with 786-0 is 77.6 µM (inactive); with A549 it was 68.9 µM (inactive); in the test with ACHN, > 100 µM (inactive); with CCRF-CEM, 36.5 µM (inactive); with HOP-62 it was > 100 µM (inactive); with HT-29 it was > 58.3 µM (inactive). The GI50 with MOLT-4 was > 76.7 µM (inactive); in the test with Malme-3M, > 100 µM (inactive); in the test with NCI-H23 it was > 100 µM (inactive); in the test with OVCAR-4, > 100 µM (inactive); in the test on OVCAR-8, > 76.7 µM (inactive); with RPMI-8226, > 49.1 µM (inactive). Moreover, the GI50 in the test with SK-MEL-28 is > 100 µM (inactive); in the test with SK-MEL-2 it was 32.3 µM (inactive); with SNB-75 it was 86.7 µM (inactive); with SNB-78 it was 68.4 µM (inactive); with U-251, > 48.5 µM (inactive); in the test on UO-31, > 100 µM (inactive).
On to `O=C1C(=O)N(c2ccc(Cl)cc2)C(=O)C(=O)C1c1nc2ccccc2o1`, for which the GI50 in the test on 786-0, in the test with A549, in the test on ACHN, with CCRF-CEM, with HOP-62 and in the test on HT-29 was > 100 µM (inactive) each time. The GI50 with MOLT-4, in the test on Malme-3M, in the test on NCI-H23, with OVCAR-4, with OVCAR-8 and with RPMI-8226 was > 100 µM (inactive) each time. The GI50 in the test on SK-MEL-28, in the test with SK-MEL-2, with SNB-75, with SNB-78, in the test with U-251 and in the test on UO-31 was > 100 µM (inactive) in each case.

These data come from ChEMBL document CHEMBL1201862, “PubChem BioAssay data set” (2004).
